IC50 data for 23 molecules are collected here from patent US20260062443A1 (ALEXION PHARMACEUTICALS, INC., priority 2022, published 2026).

SMILES strings stand for the structures.

The target in this experiment is T1, Human complement C1s enzyme (Homo sapiens, UniProt P09871).
T1 sequence (P09871 438-688 limits assumed): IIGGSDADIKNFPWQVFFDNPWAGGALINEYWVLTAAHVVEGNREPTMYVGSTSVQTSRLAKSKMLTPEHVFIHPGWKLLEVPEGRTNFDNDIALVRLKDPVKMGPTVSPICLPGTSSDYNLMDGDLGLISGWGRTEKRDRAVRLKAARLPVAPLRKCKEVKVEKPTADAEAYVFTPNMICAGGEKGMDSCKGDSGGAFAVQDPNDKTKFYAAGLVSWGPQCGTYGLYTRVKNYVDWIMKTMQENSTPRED
T1 sequence (P09871 16-437 partner limits assumed): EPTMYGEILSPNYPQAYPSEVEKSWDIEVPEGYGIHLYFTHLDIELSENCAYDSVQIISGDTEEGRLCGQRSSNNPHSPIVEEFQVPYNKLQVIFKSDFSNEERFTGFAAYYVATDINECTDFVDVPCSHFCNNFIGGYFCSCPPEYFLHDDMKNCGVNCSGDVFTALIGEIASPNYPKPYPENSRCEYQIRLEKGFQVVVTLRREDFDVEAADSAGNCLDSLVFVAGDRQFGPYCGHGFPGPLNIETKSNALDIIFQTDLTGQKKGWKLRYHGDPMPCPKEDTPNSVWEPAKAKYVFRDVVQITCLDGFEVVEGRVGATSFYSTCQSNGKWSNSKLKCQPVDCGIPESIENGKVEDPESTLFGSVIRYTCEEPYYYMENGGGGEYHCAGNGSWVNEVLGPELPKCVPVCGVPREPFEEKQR
As to the kind of experiment: Human C1s enzyme assay. It is filed as biochemical. The note with it: human complement C1s enzyme 1.16 nM, substrate Z-L-Lys-SBzl 100 μM, 5 min preincubation; read-out: IC50 (Stars), C1s Inhibiting Activity. In short, it runs like this:
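IC50 from nonlinear regression of reaction rates versus compound concentration, with rates taken from A405 recorded at 30 s intervals over 30 min after adding 100 μM Z-L-Lys-SBzl plus 100 μM DTNB. Enzyme was human C1s purified from serum, 1.16 nM, given 5 min compound preincubation at room temperature, pH 7.5 Tris/1 M NaCl.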
In general, IC50 refers to the point on the concentration scale where inhibition reaches its midpoint. For `O=C(NCC(=O)N1CC2(C[C@H]1C(=O)NCc1cc3cnccc3o1)OCCO2)c1ccc2c(c1)Oc1ccccc1S2` [Compound 50, (S)-N-(furo[3,2-c]pyridin-2-ylmethyl)-7-((phenoxathiine-3-carbonyl)glycyl)-1,4-dioxa-7-azaspiro[4.4]nonane-8-carboxamide], the IC50 was 100 to 1000 nM.
Turning to `C[C@@H](NC(=O)[C@@H]1CC2(CN1C(=O)CNC(=O)c1cccc(Oc3ccc(F)cc3)c1)OCCO2)c1cc2cnccc2[nH]1` [Compound 240, (S)-N-((R)-1-(1H-pyrrolo[3,2-c]pyridin-2-yl)ethyl)-7-((3-(4-fluorophenoxy)benzoyl)glycyl)-1,4-dioxa-7-azaspiro[4.4]nonane-8-carboxamide], the IC50 was less than 100 nM.
The same measure for `O=C(NCC(=O)N1CC2(C[C@H]1C(=O)NCc1cc3cnccc3[nH]1)OCCO2)c1ccc(Oc2ccccc2)cc1` [Compound 32, (S)-N-((1H-pyrrolo[3,2-]pyridin-2-yl)methyl)-7-((4-phenoxybenzoyl)glycyl)-1,4-dioxa-7-azaspiro[4.4]nonane-8-carboxamide]: less than 100 nM.
The same measure for `O=C(NCC(=O)N1CC2(C[C@H]1C(=O)NCc1nc3cnccc3s1)OCCO2)c1ccc2c(c1)Oc1ccccc1S2` [Compound 41, (S)-7-((phenoxathiine-3-carbonyl)glycyl)-N-(thiazolo[4,5-c]pyridin-2-ylmethyl)-1,4-dioxa-7-azaspiro[4.4]nonane-8-carboxamide]: greater than 1000 nM; for `Cc1cc(CN)cc(C2(NC(=O)[C@@H]3C[C@]4(C)C[C@@H]4N3C(=O)CNC(=O)CCCOc3ccccc3)CC2)c1` [Compound 64, (1S,3S,5S)-N-(1-(3-(aminomethyl)-5-methylphenyl)cyclopropyl)-5-methyl-2-((4-phenoxybutanoyl)glycyl)-2-azabicyclo[3.1.0]hexane-3-carboxamide]: greater than 1000 nM; for `C[C@@]12C[C@@H](C(=O)NCc3cc4cnccc4[nH]3)N(C(=O)CNC(=O)c3cccc(Oc4ccc(F)cc4)c3)[C@@H]1C2` [Compound 155, (1R,3S,5R)-N-((1H-pyrrolo[3,2-c]pyridin-2-yl)methyl)-2-((3-(4-fluorophenoxy)benzoyl)glycyl)-5-methyl-2-azabicyclo[3.1.0]hexane-3-carboxamide]: 100 to 1000 nM.
The same measure for `O=C(NCC(=O)N1CC2(C[C@H]1C(=O)NCc1ccc[nH]1)OCCO2)c1ccc(Oc2ccccc2)cc1` [Compound 14, (S)-N-((1H-pyrrol-2-yl)methyl)-7-((4-phenoxybenzoyl)glycyl)-1,4-dioxa-7-azaspiro[4.4]nonane-8-carboxamide]: greater than 1000 nM.
As for `C[C@@H](NC(=O)[C@@H]1C[C@@H](S(C)(=O)=O)CN1C(=O)CNC(=O)c1ccc(Oc2ccc(F)cc2)cc1)c1cc2cnccc2[nH]1` [Compound 87, (2S,4R)-N-((R)-1-(1H-pyrrolo[3,2-c]pyridin-2-yl)ethyl)-1-((4-(4-fluorophenoxy)benzoyl)glycyl)-4-(methylsulfonyl)pyrrolidine-2-carboxamide], the IC50 was 100 to 1000 nM.
The same measure for `CS(=O)(=O)[C@@H]1C[C@@H](C(=O)NCc2cc3cnccc3[nH]2)N(C(=O)CNC(=O)c2ccc3oc4ccccc4c3c2)C1` [Compound 202, (2S,4R)-N-((1H-pyrrolo[3,2-c]pyridin-2-yl)methyl)-1-((dibenzo[b,d]furan-2-carbonyl)glycyl)-4-(methylsulfonyl)pyrrolidine-2-carboxamide]: less than 100 nM; for `C[C@@]12C[C@@H]1N(C(=O)CNC(=O)c1ccc(Oc3ccccc3)cc1)[C@H](C(=O)NCc1cc3c(s1)C(N)=NCC3)C2` [Compound 1, (1S,3S,5S)-N-((7-amino-4,5-dihydrothieno[2,3-c]pyridin-2-yl)methyl)-5-methyl-2-((4-phenoxybenzoyl)glycyl)-2-azabicyclo[3.1.0]hexane-3-carboxamide]: greater than 1000 nM.
For `O=C(NCC(=O)N1C[C@H](OC(F)F)C[C@H]1C(=O)NCc1ccc2[nH]ncc2c1)c1ccc2c(c1)Oc1ccccc1S2` [Compound 192, (2S,4R)-N-((1H-indazol-5-yl)methyl)-4-(difluoromethoxy)-1-((phenoxathiine-3-carbonyl)glycyl)pyrrolidine-2-carboxamide], the IC50 was greater than 1000 nM.
The same measure for `C[C@@H](NC(=O)[C@@H]1C[C@H](C2OCCCO2)CN1C(=O)CNC(=O)c1ccc2c(c1)Oc1ccccc1S2)c1cc2cnccc2[nH]1` [Compound 146, (2S,4S)-N-((R)-1-(1H-pyrrolo[3,2-c]pyridin-2-yl)ethyl)-4-(1,3-dioxan-2-yl)-1-((phenoxathiine-3-carbonyl)glycyl)pyrrolidine-2-carboxamide]: less than 100 nM; for `CS(=O)(=O)[C@@H]1C[C@@H](C(=O)NCc2cc3cnccc3[nH]2)N(C(=O)CNC(=O)c2ccc3c(c2)Oc2ccccc2S3)C1` [Compound 27, (2S,4R)-N-((1H-pyrrolo[3,2-c]pyridin-2-yl)methyl)-4-(methylsulfonyl)-1-((phenoxathiine-3-carbonyl)glycyl)pyrrolidine-2-carboxamide]: less than 100 nM.
The same measure for `O=C(NCC(=O)N1C[C@H](OC(F)F)C[C@H]1C(=O)NCc1ccc2c(c1)NCC2)c1ccc2c(c1)Oc1ccccc1S2` [Compound 198, (2S,4R)-4-(difluoromethoxy)-N-(indolin-6-ylmethyl)-1-((phenoxathiine-3-carbonyl)glycyl)pyrrolidine-2-carboxamide]: greater than 1000 nM.
The same measure for `O=C(NCC(=O)N1C[C@H](OC(F)F)C[C@H]1C(=O)NCc1cc2cnccc2[nH]1)c1cncc(N2CCOCC2)n1` [Compound 380, N-(2-((2S,4R)-2-(((1H-pyrrolo[3,2-c]pyridin-2-yl)methyl)carbamoyl)-4-(difluoromethoxy)pyrrolidin-1-yl)-2-oxoethyl)-6-morpholinopyrazine-2-carboxamide]: greater than 1000 nM.
For `C[C@@H](NC(=O)[C@@H]1C[C@@H](OC(F)F)CN1C(=O)CNC(=O)c1ccc2c(c1)-c1ccccc1C2(F)F)c1cc2cnccc2[nH]1` [Compound 77, (2S,4R)-N-((R)-1-(1H-pyrrolo[3,2-c]pyridin-2-yl)ethyl)-1-((9,9-difluoro-9H-fluorene-3-carbonyl)glycyl)-4-(difluoromethoxy)pyrrolidine-2-carboxamide], the IC50 is less than 100 nM.
Consider `C[C@@]12C[C@@H]1N(C(=O)CNC(=O)c1cccc(Oc3ccccc3)c1)[C@H](C(=O)NCc1cc3cnccc3s1)C2` [Compound 246, (1S,3S,5S)-5-methyl-2-((3-phenoxybenzoyl)glycyl)-N-(thieno[3,2-c]pyridin-2-ylmethyl)-2-azabicyclo[3.1.0]hexane-3-carboxamide], for which the IC50 is less than 100 nM.
The same measure for `COC[C@@]1(F)C[C@@H](C(=O)NCc2cc3cnccc3[nH]2)N(C(=O)CNC(=O)c2ccc3c(c2)Oc2ccccc2S3)C1` [Compound 25, (2S,4R)-N-((1H-pyrrolo[3,2-c]pyridin-2-yl)methyl)-4-fluoro-4-(methoxymethyl)-1-((phenoxathiine-3-carbonyl)glycyl)pyrrolidine-2-carboxamide]: less than 100 nM; for `C[C@@H](NC(=O)[C@@H]1C[C@]2(C)C[C@@H]2N1C(=O)CNC(=O)c1ccc2oc3ccccc3c2c1)c1cc2cnccc2[nH]1` [Compound 200, (1S,3S,5S)-N-((R)-1-(1H-pyrrolo[3,2-c]pyridin-2-yl)ethyl)-2-((dibenzo[b,d]furan-2-carbonyl)glycyl)-5-methyl-2-azabicyclo[3.1.0]hexane-3-carboxamide]: less than 100 nM.
The same measure for `C[C@@H](NC(=O)[C@@H]1C[C@@H](OC(F)F)CN1C(=O)CNC(=O)c1ccc(Oc2ccccc2)cc1)c1cc(B(O)O)cs1` [Compound 189, (5-((R)-1-((2S,4R)-4-(difluoromethoxy)-1-((4-phenoxybenzoyl)glycyl)pyrrolidine-2-carboxamido)ethyl)thiophen-3-yl)boronic acid]: greater than 1000 nM.
The same measure for `O=C(NCC(=O)N1C[C@H](OC(F)F)C[C@H]1C(=O)NCc1cc2cnccc2[nH]1)c1cccc(Oc2cccs2)c1` [Compound 275, (2S,4R)-N-((1II-pyrrolo[3,2-c]pyridin-2-yl)methyl)-4-(difluoromethoxy)-1-((3-(thiophen-2-yloxy)benzoyl)glycyl)pyrrolidine-2-carboxamide]: less than 100 nM; for `COC[C@H]1C[C@@H](C(=O)N[C@H](C)c2cc3cnccc3[nH]2)N(C(=O)CNC(=O)c2ccc3c(c2)Oc2ccccc2S3)C1` [Compound 132, (2S,4S)-N-((R)-1-(1H-pyrrolo[3,2-c]pyridin-2-yl)ethyl)-4-(methoxymethyl)-1-((phenoxathiine-3-carbonyl)glycyl)pyrrolidine-2-carboxamide]: less than 100 nM; for `O=C(NCC(=O)N1CC2(C[C@H]1C(=O)NCc1ncc[nH]1)OCCO2)c1ccc(Oc2ccccc2)cc1` [Compound 15, (S)-N-((1H-imidazol-2-yl)methyl)-7-((4-phenoxybenzoyl)glycyl)-1,4-dioxa-7-azaspiro[4.4]nonane-8-carboxamide]: greater than 1000 nM.
